In patent US20120329872A1, “Ready-To-Eat Feed For Domestic Pets” (Alzchem Trostberg GmbH, priority 2006, published 2012):

Key:
[1] = dogs, oral, about 40 mg/kg daily for several weeks; cited from earlier work
[2] = Storage stability in water at pH 5 over 60 days (comparable to canned feeds); assay type: physicochemical
[3] = Stability in water (pH 7) heated in an autoclave to 160° C. for 30 minutes (model of feed extrusion); assay type: physicochemical
Experimental: For this purpose a model system was used for the extrusion of a moist feed paste at 160° C. […] Subsequently the content of creatine and guanidinoacetic acid was determined.

[4] = test system: Staphylococcus aureus; conditions: bacterial infections (Staphylococcus aureus); cited from earlier work
[5] = 200 patients, 30 mg GAA/kg daily for one year, in combination with betaine; cited from earlier work

Row | content recovered after storage ([2]; water pH 5, after 60 days) | content remaining, of the original content ([3]; water pH 7, 30 minutes at 160° C., autoclave) | degradation after storage ([2]; water pH 5, after 60 days) | content remaining, of the original content ([3]; 0.5 h, pH 7) | SMILES | body weight change [1] | nitrogen balance [1] | antibacterial action in animal experiments [4] | side effects [5] | storage stability compared with creatine (FIG. 2) ([2]; water pH 5, over 60 days)
1 | 87% | less than 20% |  |  | CN(CC(=O)O)C(=N)N [creatine, reference compound] | considerable increase in weight | positive nitrogen balance |  |  | 
2 |  |  | no degradation | more than 80% | N=C(N)NCC(=O)O [guanidinoacetic acid] |  |  | successfully used against bacterial infections | not observed | significantly higher storage stability than creatine
